Results as given in publication PMC6278385, “Preclinical Pharmacokinetics of C118P, a Novel Prodrug of Microtubules Inhibitor and Its Metabolite C118 in Mice, Rats, and Dogs” (Molecules, 2018).

Assay: Tissue distribution in tumor bearing mice
Assay type: in vivo, nude mice (BALB/cA) implanted with NCI-H460 tumor
Details: n=4
Description: The nude mice (BALB/cA) implanted with NCI-H460 tumor were provided by Shanghai Institute of Materia Medica. A total of 36 mice were divided into 9 groups with four animals in each group. After fasting overnight with free access to water, the mice were treated with 75 mg/kg C118P by i.v. The blood samples were collected at 2, 10, 20, 40 min, 1, 2, 4, 8, 12 h after treatment and the mice were anaesthetized and decapitated to obtain the blood and tumor tissue. Blood, brain, muscle, ovary, and lung from mice in the PK study were collected at 10 min, 1, 4, and 12 h. Tissues were cleaned by absorbent filter paper to remove the blood. Bloods were centrifuged at 10,000× g for 5 min. Each tissue (0.2 g) was homogenized with 2 mL water. The plasma samples and the homogenates were then processed and determined by the method described above. The concentration was determined by the calibration curve and the actual concentration was corrected by multiplying by 10 according to the dilution times. […]
4. The distribution of CA4P and CA4 in tumor bearing mice.
The nude mice (BALB/cA) implanted with NCI-H460 tumor were provided by Shanghai institute of Materia Medica. A total of 36 mice were divided into 9 groups with 4 animals in each group.
After fasted overnight with free access to water, the mice were treated with 75 mg/kg CA4P by i.v.
The blood samples were collected at 2, 10, 20, 40 min, 1, 2, 4, 8, 12 h after treatment and the mice were anaesthetized and decapitated to obtain the blood and tumor tissue. All procedure are same as C118P in the main text. The concentration was determined by the calibration curve and the actual concentration was corrected by multiplying by 10 according to the dilution times.

[1] = 0.17 h after i.v. 75 mg/kg of CA4P
[2] = 1 h after i.v. 75 mg/kg of CA4P
[3] = 4 h after i.v. 75 mg/kg of CA4P
[4] = 12 h after i.v. 75 mg/kg of CA4P

concentration in Lung [1] | concentration in brain [1] | concentration in ovary [1] | concentration in Lung [2] | concentration in brain [2] | concentration in muscle [2] | concentration in ovary [2] | concentration in Lung [3] | concentration in brain [3] | concentration in muscle [3] | concentration in Tumor [4] | concentration in muscle [4] | Structure (SMILES) | concentration in Plasma [1] | concentration in Tumor [1] | concentration in muscle [1] | concentration in Plasma [2] | concentration in Tumor [2] | concentration in Plasma [3] | concentration in Tumor [3] | concentration in Plasma [4]
5849.0±580.7 | 16165.3±1211.9 | 44183.5±13169.9 | 759.4±242.6 | 2135.9±486.2 | 595.6±308.4 | 1288.3±711.2 | 106.8±12.1 | 97.6±21.3 | 142.0±33.9 | 735.1±426.2 | 51.9±36.8 | COc1ccc(/C=C\c2cc(OC)c(OC)c(OC)c2)cc1O [CA4, Combretastain A4, reference compound] | 12540.3±972.6 | 9835.7±1345.9 | 8526.1±3505.7 | 595.8±277.7 | 4803.9±770.6 | 21.1±4.5 | 3677.0±1079.9 | –
– | – | – | – | – | – | – | – | – | – | – | – | COc1ccc(/C=C\c2cc(OC)c(OC)c(OC)c2)cc1OP(=O)([O-])[O-].[Na+].[Na+] [CA4P, CA4 phosphate, reference compound] | 15879.9±4473.5 | 142.8±49.2 | 345.2±68.9 | 324.9±105.2 | 26.5±1.4 | 15.0±6.8 | 34.5±1.9 | 12.6±3.3
